This note sets out measurements from PubChem BioAssay (NCI).

Among the test systems are MDA-N; CCRF-CEM leukemia; SK-OV-3 ovarian; T-47D breast; HOP-92 NSCLC; K-562 leukemia; CAKI-1 renal; U251 CNS; OVCAR-8 ovarian; HCC-2998 colon.
Holding throughout (experiment): NCI anticancer screen, dose series, 48 h

Each structure is given as a SMILES string.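 Growth conditions: 96-well plates. Treatment: test compound, 48 hours, 5 concentrations. Analysis: linear interpolation between bracketing concentrations; unreached endpoints set to highest concentration. GI50 marks 50% less growth. TGI marks complete inhibition of growth.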 Some results are limits rather than exact numbers.

As to `COc1cc(OC)cc(Oc2nc3ccccc3nc2C(F)(F)F)c1`, the TGI with MDA-N, in the assay with CCRF-CEM leukemia, with SK-OV-3 ovarian, with T-47D breast, in the assay with HOP-92 NSCLC and in the assay with K-562 leukemia was greater than 100 µM each time. In addition, the TGI in the assay with CAKI-1 renal, in the assay on U251 CNS, with OVCAR-8 ovarian and in the assay on HCC-2998 colon was greater than 100 µM in each case.

In the case of `CC1=C(C)CC2C(=O)N(c3cc(C(C)(C)C)ccc3C(C)(C)C)C(=O)C2C1` (stereo not drawn), the TGI in the assay on MDA-N, in the assay with CCRF-CEM leukemia, in the assay with SK-OV-3 ovarian, with T-47D breast, in the assay on HOP-92 NSCLC and with K-562 leukemia was greater than 100 µM in each case. Also, the TGI in the assay on CAKI-1 renal, with U251 CNS, in the assay on OVCAR-8 ovarian and in the assay on HCC-2998 colon was greater than 100 µM throughout.

For the compound `COc1cccc(C2c3cc4c(cc3OC(N3CCCCC3)C2C)OCO4)c1O` (stereo not drawn), the TGI with MDA-N was 7.71 µM; in the assay with CCRF-CEM leukemia it was 13.9 µM; with SK-OV-3 ovarian, greater than 79.1 µM; with T-47D breast, 80 µM; in the assay on HOP-92 NSCLC, 46.8 µM; with K-562 leukemia, 12.7 µM. Further, the TGI with CAKI-1 renal is greater than 53 µM; in the assay with U251 CNS it was 16.2 µM; with OVCAR-8 ovarian it was greater than 36.5 µM; in the assay on HCC-2998 colon, 25.6 µM.

As for `O=C1C=CC(=O)c2c1ccc1c3ccccc3n(CCCCCn3c4ccccc4c4ccc5c(c43)C(=O)C=CC5=O)c21`, the TGI in the assay with MDA-N is 40.1 µM; in the assay on CCRF-CEM leukemia it was 6.58 µM; in the assay on SK-OV-3 ovarian it was greater than 100 µM; with T-47D breast it was 24.5 µM; in the assay on HOP-92 NSCLC, 35.6 µM; with K-562 leukemia, 4.89 µM. In addition, the TGI was 13.7 µM in the assay with CAKI-1 renal, 54 µM in the assay with U251 CNS, 46.9 µM in the assay on OVCAR-8 ovarian and greater than 80.8 µM in the assay with HCC-2998 colon.

For `Cc1ccc(S(=O)(=O)c2[nH]cc(/C(=C\C3CCCCC3)[N+](=O)[O-])c2C2CCCCC2)cc1`, the TGI with MDA-N is 0.968 µM; in the assay on CCRF-CEM leukemia it was 0.991 µM; in the assay with SK-OV-3 ovarian, greater than 26.9 µM; with T-47D breast it was 1.29 µM; with HOP-92 NSCLC, 3.99 µM; with K-562 leukemia, 0.923 µM. The TGI is 0.531 µM in the assay with CAKI-1 renal, 4.56 µM with U251 CNS, 2.78 µM in the assay on OVCAR-8 ovarian and 0.485 µM in the assay with HCC-2998 colon.

`Cc1n(Cc2ccccc2)c2c([n+]1C)C(=O)c1ccccc1C2=O`: the TGI was 0.32 µM with MDA-N; greater than 100 µM with CCRF-CEM leukemia; 1.65 µM in the assay on SK-OV-3 ovarian; 1.33 µM in the assay with T-47D breast; 1.49 µM with HOP-92 NSCLC; 1.66 µM in the assay with K-562 leukemia. The TGI with CAKI-1 renal amounted to 11.3 µM; with U251 CNS, 0.131 µM; in the assay on OVCAR-8 ovarian, 0.826 µM; in the assay on HCC-2998 colon it was 1.45 µM.

Take `COc1cc(Nc2nc3ccccc3nc2C(=O)O)cc(OC)c1OC`: the TGI with MDA-N was greater than 100 µM; in the assay on CCRF-CEM leukemia, greater than 100 µM; in the assay on SK-OV-3 ovarian, greater than 100 µM; in the assay on T-47D breast, greater than 100 µM; in the assay with HOP-92 NSCLC it was 92.7 µM; in the assay with K-562 leukemia it was greater than 100 µM. Besides, the TGI with CAKI-1 renal is 76.4 µM; in the assay with U251 CNS it was greater than 100 µM; in the assay on OVCAR-8 ovarian, greater than 100 µM; in the assay on HCC-2998 colon, greater than 100 µM.

Turning to `COC[C@@H](N=CC(C)(C)C)C(C)C`, the TGI in the assay on MDA-N, with CCRF-CEM leukemia, in the assay on SK-OV-3 ovarian, with T-47D breast, in the assay with HOP-92 NSCLC and in the assay with K-562 leukemia was greater than 100 µM in each case. Besides, the TGI in the assay on CAKI-1 renal, in the assay on U251 CNS, with OVCAR-8 ovarian and in the assay on HCC-2998 colon was greater than 100 µM throughout.

Consider `C/C=C/C(CC(O)(C(F)(F)F)C(F)(F)F)=N/NC(N)=S`, for which the TGI in the assay on MDA-N, in the assay on CCRF-CEM leukemia, in the assay with SK-OV-3 ovarian, in the assay with T-47D breast, with HOP-92 NSCLC and with K-562 leukemia was greater than 10 µM throughout. Also, the TGI with CAKI-1 renal, with U251 CNS, in the assay with OVCAR-8 ovarian and in the assay with HCC-2998 colon was greater than 10 µM throughout.

For `Cc1[nH]c(=O)nc2nc3ccc(Cl)cc3c(NCCNCCO)c12`, the TGI was 25.4 µM in the assay with MDA-N; 28.1 µM with CCRF-CEM leukemia; 23.9 µM in the assay on SK-OV-3 ovarian; 23.1 µM in the assay with T-47D breast; 24.2 µM with HOP-92 NSCLC; greater than 100 µM in the assay with K-562 leukemia. The TGI is 25.4 µM in the assay with CAKI-1 renal, 21.2 µM in the assay on U251 CNS, 21.6 µM with OVCAR-8 ovarian and 26.5 µM with HCC-2998 colon.

In the case of `Cc1ccc(C2SCC(=O)N2c2ccc(-n3c(-c4ccccc4)nc4ccccc4c3=O)cc2)cc1` (stereo not drawn), the TGI is 80 µM with MDA-N; greater than 100 µM in the assay on CCRF-CEM leukemia; 40.5 µM in the assay on SK-OV-3 ovarian; 67.3 µM with T-47D breast; 51.6 µM in the assay on HOP-92 NSCLC; greater than 100 µM in the assay with K-562 leukemia. Moreover, the TGI is greater than 100 µM with CAKI-1 renal, 35 µM in the assay on U251 CNS, greater than 100 µM with OVCAR-8 ovarian and 63.1 µM in the assay with HCC-2998 colon.

Take `C=CCc1cccc2cc(C(=O)NCc3ccccc3)c(=N)oc12`: the TGI in the assay on MDA-N, with CCRF-CEM leukemia, in the assay with SK-OV-3 ovarian, with T-47D breast, with HOP-92 NSCLC and in the assay with K-562 leukemia was greater than 100 µM throughout. In addition, the TGI is greater than 100 µM in the assay with CAKI-1 renal, greater than 100 µM in the assay with U251 CNS, greater than 100 µM in the assay on OVCAR-8 ovarian and 67.8 µM with HCC-2998 colon.

Consider `O=c1[nH]nnc2c1sc1ncccc12`, for which the TGI with MDA-N, with CCRF-CEM leukemia, in the assay with SK-OV-3 ovarian, with T-47D breast, in the assay with HOP-92 NSCLC and with K-562 leukemia was greater than 100 µM throughout. Besides, the TGI in the assay on CAKI-1 renal, with U251 CNS, in the assay on OVCAR-8 ovarian and in the assay with HCC-2998 colon was greater than 100 µM in each case.

Turning to `COc1cc(C2c3cc4c(cc3OC(N3CCCCC3)C2C)OCO4)cc(OC)c1O` (stereo not drawn), the TGI is 5.6 µM with MDA-N; 25.1 µM with CCRF-CEM leukemia; 19.9 µM with SK-OV-3 ovarian; greater than 60.2 µM in the assay on T-47D breast; 37.3 µM in the assay with HOP-92 NSCLC; greater than 100 µM in the assay with K-562 leukemia. For the same compound, the TGI with CAKI-1 renal is 25.2 µM; in the assay with U251 CNS, greater than 64.6 µM; in the assay on OVCAR-8 ovarian it was 36.7 µM; in the assay on HCC-2998 colon it was 32.7 µM.

As for `Brc1ccc2[nH]cc(-c3csc(-c4c[nH]c5ccccc45)n3)c2c1`, the TGI is 7.65 µM in the assay on MDA-N; 5.89 µM with CCRF-CEM leukemia; 20.7 µM with SK-OV-3 ovarian; 26.9 µM with T-47D breast; 7.68 µM in the assay with HOP-92 NSCLC; greater than 20.8 µM in the assay on K-562 leukemia. For the same compound, the TGI is 9.2 µM in the assay with CAKI-1 renal, 8.64 µM in the assay on U251 CNS, 21.2 µM with OVCAR-8 ovarian and 3.96 µM in the assay with HCC-2998 colon.

For the compound `CC1(C)OC(C(=O)Nc2cc3c4ccccc4ccc3c3ccccc23)C(C(=O)N2CCCCC2)O1` (stereo not drawn), the TGI in the assay with MDA-N, with CCRF-CEM leukemia, in the assay with SK-OV-3 ovarian, with T-47D breast, in the assay on HOP-92 NSCLC and in the assay on K-562 leukemia was greater than 100 µM throughout. The TGI with CAKI-1 renal is greater than 54.6 µM; in the assay with U251 CNS it was greater than 100 µM; in the assay with OVCAR-8 ovarian, greater than 100 µM; in the assay with HCC-2998 colon, greater than 100 µM.

As to `COc1ccc(C2SC(N)=Nc3c2c(C)nn3C(=O)c2ccncc2)cc1OC` (stereo not drawn), the TGI in the assay with MDA-N, in the assay on CCRF-CEM leukemia, in the assay with SK-OV-3 ovarian, in the assay with T-47D breast, in the assay on HOP-92 NSCLC and with K-562 leukemia was greater than 10 µM in each case. Besides, the TGI in the assay with CAKI-1 renal, in the assay with U251 CNS, with OVCAR-8 ovarian and in the assay on HCC-2998 colon was greater than 10 µM each time.

For the compound `C=C(Cl)C(=CCl)CCC(Br)C(C)(C)Cl` (mixture of isomers), the TGI in the assay with MDA-N is greater than 10 µM; in the assay with CCRF-CEM leukemia, 6.89 µM; in the assay on SK-OV-3 ovarian, greater than 10 µM; in the assay on T-47D breast, greater than 10 µM; with HOP-92 NSCLC, greater than 10 µM; in the assay with K-562 leukemia, greater than 10 µM. The TGI in the assay on CAKI-1 renal, in the assay on U251 CNS, in the assay on OVCAR-8 ovarian and with HCC-2998 colon was greater than 10 µM each time.

For the compound `COC(=O)C1=C(C(=O)OC)N(c2ccc(OC)cc2[N+](=O)[O-])C(c2ccc(C)cc2)=CC1c1ccc(OC)cc1OC` (stereo not drawn), the TGI is greater than 100 µM with MDA-N; greater than 32.4 µM in the assay with CCRF-CEM leukemia; 73.3 µM in the assay on SK-OV-3 ovarian; greater than 93.3 µM in the assay on T-47D breast; greater than 100 µM with HOP-92 NSCLC; greater than 54.4 µM with K-562 leukemia. For the same compound, the TGI with CAKI-1 renal is greater than 92.4 µM; in the assay on U251 CNS it was 34.8 µM; in the assay on OVCAR-8 ovarian, 47.9 µM; in the assay with HCC-2998 colon it was 30.6 µM.

For the compound `Cc1ccnc2[nH]c(-c3ccc4ccccc4c3)cc(=O)c12`, the GI50 was 0.206 µM in the assay on MDA-N, 2.39 µM in the assay on CAKI-1 renal and 0.644 µM in the assay on U251 CNS. Moreover, the TGI in the assay on MDA-N is 0.448 µM; in the assay on CCRF-CEM leukemia, 8.43 µM; in the assay on SK-OV-3 ovarian, 5.32 µM; in the assay on T-47D breast, 34.6 µM; in the assay on HOP-92 NSCLC, 4.78 µM; in the assay with K-562 leukemia it was 6.52 µM. In addition, the TGI is 14.4 µM in the assay on CAKI-1 renal, 10.4 µM in the assay with U251 CNS, 14 µM in the assay on OVCAR-8 ovarian and 19.4 µM in the assay with HCC-2998 colon.
